{"source": "patent US20250085295A1", "about": "“METHODS FOR MEASURING INTERACTIONS BETWEEN PROTEINS COMPRISING AN FC PORTION AND PARTICLES” (NANOTEMPER TECHNOLOGIES GMBH, priority 2023, published 2025)", "key": {"IgG antibody": {"target": "IgG antibody", "conditions": "literature DOI cited; read-out: affinity of Fc-binding peptide to IgG antibody; cited from earlier work"}, "Trastuzumab [1]": {"test_system": "Trastuzumab", "assay": "Spectral shift (SpS, 670/650 nm ratio) dose-response of fluorescent peptide tracer vs Trastuzumab", "format": "binding", "conditions": "for binding affinity of fluorescent peptide to Trastuzumab, spectral shift response (SpS): 2.4 nM peptide, Trastuzumab dilution series up to 2062.5 nM, excitation 591 nm, 650/670 nm, FIGS. 1 and 2", "procedure": "(§1) The fluorescent peptide tracer was dissolved in 100% DMSO to obtain stock solutions of 2.4 mM for FcIII and FcT. Subsequently, 16 or 24 point 1-to-1 dilution series of unlabeled Trastuzumab antibodies with stock concentrations of 825 µM were prepared leading to final assay concentrations of 2062.5 nM for Trastuzumab and a FCT and FcIII concentration of 2.4 nM. Samples were loaded into Dianthus 384-well plates (DI-P001A, NanoTemper Technologies) or polymer-coated borosilicate glass capillaries (Monolith NT.115 Premium Capillaries, MO-K025, NanoTemper Technologies). Measurements were taken with Nano Temper Software (MO.Control 2, DI.Control) by excitation at 591 nm and recording of fluorescence traces at 650 nm and 670 nm. For results showing TRIC results, simultaneous induction heat via an IR laser was induced and the thermophoretic behavior recorded for 5s.\nTo evaluate the importance of the right affinity for this labeling approach, also a fluorescent peptide tracer was designed based on previously published findings based on a combinatorial tetrapeptide library (Camperi et al., Biotechnol Lett (2003), 25:1545-1548). To this end, the tetrapeptide APAR, which was previously found to bind to Immunoglobulin G was synthesized with an N-terminal lysine to accommodate further conjugation with Cy5 dye. The resulting fluorescent peptide tracer Cy5-KAPAR (cf. SEQ ID NO: 9) was dissolved in 100% DMSO to obtain stock solutions of 4.96 mM. The stock solution was further diluted in PBS-P. Subsequently 24 point 1-to-1 dilution series of unlabeled Trastuzumab antibody with stock concentrations of 825 μM were prepared leading to final assay concentrations of 412 μM for Trastuzumab and a Cy5-KAPAR (cf. SEQ ID NO: 9) concentration of 2.5 nM. Samples were loaded into Dianthus 384-well plates (DI-P001A, NanoTemper Technologies). Measurements were taken with Nano Temper Software (DI.Control) by excitation at 591 nm and recording of fluorescence traces at 650 nm and 670 nm. […] Such affinities result in required assay concentrations of over 100 μM in ligand-binding assays, which can hardly be achieved due to antibody solubility and availability. Furthermore, only affinities lower than the used concentration of antibody could reliable be determined, severely limiting the approach."}, "Trastuzumab [2]": {"target": "Trastuzumab", "assay": "TRIC signal at 670 nm, dose-response of fluorescent peptide tracer vs Trastuzumab", "format": "binding", "conditions": "2.4 nM peptide, Trastuzumab dilution series, IR laser heating 5 s, FIGS. 3 and 4", "procedure": "as §1"}, "[3]": {"target": "T1, Her2/ERBB2 Protein, Human, Recombinant (ECD, His Tag) (Homo sapiens, UniProt P04626)", "T1 construct": "Her2/ERBB2 Protein, Human, Recombinant (ECD, His Tag); His tag; purchased Sino Biological 10004-H08H", "assay": "Interaction of Her2 with labeled Trastuzumab in spectral shift (SpS)", "format": "binding", "conditions": "4 nM Trastuzumab, 2.4 nM tracer, Her2 up to 220 nM; FIGS. 5 and 7", "procedure": "(§2) The fluorescent peptide tracer was dissolved in 100% DMSO to obtain stock solutions of 2.4 mM for FcIII and FcT. Peptide tracers were mixed with 8 nM Trastuzumab and incubated for 15 min. Subsequently, 16 or 24 point 1-to-1 dilution series of Her2 were prepared and mixed 1:1 with prepared peptide: trastuzumab dilution, leading to final assay concentrations of 4 nM for Trastuzumab, 2.4 nM FcT and FcIII, and 220 nM as highest in-assay concentration of Her2. Samples were loaded into Dianthus 384-well plates (DI-P001A, NanoTemper Technologies) or polymer-coated borosilicate glass capillaries (Monolith NT.115 Premium Capillaries, MO-K025, NanoTemper Technologies). Measurements were taken with Nano Temper Software (MO.Control 2, DI.Control) by excitation at 591 nm and recording of fluorescence traces at 650 nm and 670 nm. For results showing TRIC results, simultaneous heat via an IR laser was induced and the thermophoretic behavior recorded for 5s.\n(§3) For NHS labeling of Trastuzumab, NHS labeling kit 2nd generation (NanoTemper Technologies) was used. In short, Trastuzumab was exchanged into NHS labeling buffer and mixed with NHS-NTT dye. After incubation in the dark for 30 min, unreacted dye was separated using a B-column provided with the kit. Eluting fractions containing 2.5 µM labeled Trastuzumab were collected and stored at −80° C."}, "[4]": {"target": "T1, Her2/ERBB2 Protein, Human, Recombinant (ECD, His Tag)", "assay": "Interaction of Her2 with labeled Trastuzumab in TRIC 670 nm", "format": "binding", "conditions": "4 nM Trastuzumab, 2.4 nM tracer, Her2 up to 220 nM; FIGS. 6 and 8", "procedure": "as §2, §3"}, "[5]": {"assay": "Thermal unfolding analysis using Fc-peptide labeling (670/650 nm ratio, first derivative)", "format": "physicochemical", "conditions": "free FcIII without antibody, heating 1° C./min; FIG. 14A, 14B", "procedure": "The fluorescent peptide tracer was dissolved in 100% DMSO to obtain stock solutions of 2.4 mM for FcIII. […] Samples were loaded into capillaries, excited at 591 nm and fluorescence was recorded at 650 and 670 nm. Samples were heated a rate of 1° C./min while recording fluorescence signals."}, "IgA antibody": {"target": "IgA antibody", "conditions": "literature DOI cited; read-out: affinity of Fc-binding peptide to IgA antibody; cited from earlier work"}}}
{"substance": "KHRFNKD", "values": [{"measurement": "Kd", "setting": "IgG antibody", "result": 0.02, "unit": "µM"}]}
{"substance": "DCAWHLGELVWCT [Fc-III]", "values": [{"measurement": "Kd", "setting": "IgG antibody", "result": "0.016 to 0.025", "unit": "µM"}]}
{"substance": "low affinity fluorescent peptide tracer, tetrapeptide APAR with N-terminal lysine conjugated with Cy5 (cf. SEQ ID NO: 9) [Cy5-KAPAR, Cy5-KAPAR-OH]", "values": [{"measurement": "ratiometric change in the 670/650 nm fluorescence upon binding of Trastuzumab", "setting": "Trastuzumab [1]; 2.5 nM Cy5-KAPAR, Trastuzumab up to 412 μM", "result": "large ratiometric change"}, {"measurement": "Kd", "setting": "Trastuzumab [1]; 2.5 nM Cy5-KAPAR, Trastuzumab up to 412 μM, spectral shift 670/650 nm, read-out: affinity to Trastuzumab (estimated, saturation not reached)", "result": "> 60", "unit": "µM"}]}
{"substance": "[Cyc(2,12)]NTTred-DCAWHLGELVWCT-OH [FcT]", "values": [{"measurement": "binding affinity of fluorescent peptide to Trastuzumab, spectral shift response (SpS)", "setting": "Trastuzumab [1]", "result": "Clear binding with nanomolar affinities"}, {"measurement": "binding affinity of fluorescent peptide to Trastuzumab, TRIC", "setting": "Trastuzumab [2]", "result": "Clear binding with nanomolar affinities"}, {"measurement": "binding of Her2 to Trastuzumab labeled with the peptide tracer, spectral shift dose-response", "setting": "[3]", "result": "clearly show the binding of Her2"}, {"measurement": "binding of Her2 to Trastuzumab labeled with the peptide tracer, TRIC signal dose-response", "setting": "[4]", "result": "clearly show the binding of Her2"}]}
{"substance": "[Cyc(2,12)]Cy5-DCAWHLGELVWCT-NH2 [FcIII]", "values": [{"measurement": "binding affinity of fluorescent peptide to Trastuzumab, spectral shift response (SpS)", "setting": "Trastuzumab [1]", "result": "Clear binding with nanomolar affinities"}, {"measurement": "binding affinity of fluorescent peptide to Trastuzumab, TRIC", "setting": "Trastuzumab [2]", "result": "Clear binding with nanomolar affinities"}, {"measurement": "binding of Her2 to Trastuzumab labeled with the peptide tracer, spectral shift dose-response", "setting": "[3]", "result": "clearly show the binding of Her2"}, {"measurement": "binding of Her2 to Trastuzumab labeled with the peptide tracer, TRIC signal dose-response", "setting": "[4]", "result": "clearly show the binding of Her2"}, {"measurement": "thermal profile, unfolding events in the first derivative", "setting": "[5]", "result": "no distinct unfolding events"}]}
{"substance": "CDCAWHLGELVWCTC [Fc-III-4C]", "values": [{"measurement": "Kd", "setting": "IgG antibody", "result": 0.0025, "unit": "µM"}]}
{"substance": "L-Pro DCAWHLGELVWCT D-Pro [FcBP2]", "values": [{"measurement": "Kd", "setting": "IgG antibody", "result": 0.0018, "unit": "µM"}]}
{"substance": "HQVCLSYRGRPVCFST", "values": [{"measurement": "Kd", "setting": "IgA antibody", "result": 0.072, "unit": "µM"}]}
{"substance": "RRGW", "values": [{"measurement": "Kd", "setting": "IgG antibody", "result": 0.0005, "unit": "µM"}]}
